Common to all, as to type: cell-based
The subject of test [1] is HT29 colon cancer cell line. As to the kind of experiment: Inhibition of proliferation of HT29 colon cancer cells, tritiated thymidine incorporation. The following applies: Homo sapiens, HT-29, 15 h, read-out: % Inhibition of cell proliferation (3HThdR incorporation). The protocol:
The HT29 colon cancer cell line employed (originally isolated from an adenocarcinoma of the human colon) was obtained from the ATCC (American Type Culture Collection).
The cells are cultured at the rate of 10^4 or 5×10^4 cells in a well containing 200 μl of culture medium composed of RPMI […] supplemented with 10% fetal calf serum, 2 mM of L-glutamine and 25 μM gentamicin.

In test [2] the test system is LFC rat hepatocarcinoma cells. Nature of the test: Inhibition of proliferation of LFC hepatocarcinoma cells, tritiated thymidine incorporation. The following applies: concentrations of 0.1% and 1% by weight. The protocol: LFC rat hepatocarcinoma cells (VPR42, Villejuif) are cultured at the rate of 10^4 or 5×10^4 cells in a well containing 200 μl of culture medium.
Inhibition of cell proliferation is assessed using tritiated thymidine as described in Test 1. The assessment is made in comparison with the reference product, which is verapamil.
A general note: Incorporation of labelled thymidine or its analogues reports DNA synthesis.

The subject of test [3] is STC-1 mouse intestinal cancer cell lines. As to the kind of experiment: Growth of STC-1 carcinoid intestinal cells, cell counting or MUH fluorescence. The following applies: STC-1, read-out: ED50 (cell growth). On the procedure: The STC-1 mouse intestinal cancer cell lines are cultured in a DMEM medium which contains 15% horse serum and 2.5% FCS. The products to be studied are added to the culture and cell growth is assessed by counting cells or, more frequently, by a fluorescence technique which is based on the cellular enzymic hydrolysis of the fluorogenic substrate 4-methylumbelliferyl heptanoate (MUH); thus, viable cells which are incubated with MUH generate a fluorescent signal which is proportional to their number and which is determined using a “Titentec Fluoroscan II” (Flow Laboratory), with the value being given in arbitrary fluorescence units.

The subject of test [4] is BON human pancreatic carcinoid cell lines. Nature of the test: Inhibition of growth of BON pancreatic carcinoid cells, MUH fluorescence. The following applies: 192 h, read-out: ED50 (inhibition of cell growth). The protocol:
The BON human pancreatic carcinoid cell lines are cultured in a DMEM/F12K (1/1) medium to which 10% FCS is added.

Take `COc1ccc(CCN(C)CCCC(C#N)(c2ccc(OC)c(OC)c2)C(C)C)cc1OC` (stereo not drawn) [verapamil]: in test [1], the inhibition at 0.025 % strength stood at 17%, the inhibition at 0.05 % strength was 17% and the inhibition at 0.1 % strength amounted to 27%. In test [2], the “percentage inhibition of proliferation” value worked out at 72%. Further, in test [3], the EC50 is 13 µM. Moreover, in test [4], the EC50 worked out at 43.6 µM.

Source of the values: patent US6500826B1, “Use of panaverium bromide for preventing cell proliferation and diseases caused thereby in the liver and digestive tract” (Solvay Pharma, priority 1996, dated 2002).
